Results: BindingDB's records for patent US20250221987 (Acerand Therapeutics (Hong Kong), 2025)

What was measured:
[1] = target: Poly [ADP-ribose] polymerase 1 (Homo sapiens, UniProt P09874); assay: PARP1 Enzymatic Activity Assay
Protocol: 2) After the coating was completed, the coating buffer was discarded. […] After washing, the blocking buffer was discarded. […] 4) 1000× compound was prepared. 1 μL of compound was transferred to a 96-well plate containing 199 μL of reaction buffer (50 mM Tris-HCl (pH 7.5), 0.005% Tween-20, 0.01% BSA) and mixed well. […] 5) 25/10×PARP1-DNA solution was prepared with reaction buffer. […] 6) 25/10×NAD+ solution was prepared with reaction buffer. […] 8) Primary antibody was 2000-fold diluted with the blocking buffer. 20 μL of primary antibody was added to the reaction plate, which was incubated at room temperature for 1.5 hours. 9) The primary antibody was discarded. […] 10) Secondary antibody was 2000-fold diluted with the blocking buffer. […] 11) The secondary antibody was discarded. […] The chemiluminescence value RLU was read with Envision.

[2] = target: Poly [ADP-ribose] polymerase 2 (Homo sapiens, UniProt Q9UGN5); assay: PARP2 Enzymatic Activity Assay
Poly [ADP-ribose] polymerase 2, sequence (Q9UGN5 whole entry): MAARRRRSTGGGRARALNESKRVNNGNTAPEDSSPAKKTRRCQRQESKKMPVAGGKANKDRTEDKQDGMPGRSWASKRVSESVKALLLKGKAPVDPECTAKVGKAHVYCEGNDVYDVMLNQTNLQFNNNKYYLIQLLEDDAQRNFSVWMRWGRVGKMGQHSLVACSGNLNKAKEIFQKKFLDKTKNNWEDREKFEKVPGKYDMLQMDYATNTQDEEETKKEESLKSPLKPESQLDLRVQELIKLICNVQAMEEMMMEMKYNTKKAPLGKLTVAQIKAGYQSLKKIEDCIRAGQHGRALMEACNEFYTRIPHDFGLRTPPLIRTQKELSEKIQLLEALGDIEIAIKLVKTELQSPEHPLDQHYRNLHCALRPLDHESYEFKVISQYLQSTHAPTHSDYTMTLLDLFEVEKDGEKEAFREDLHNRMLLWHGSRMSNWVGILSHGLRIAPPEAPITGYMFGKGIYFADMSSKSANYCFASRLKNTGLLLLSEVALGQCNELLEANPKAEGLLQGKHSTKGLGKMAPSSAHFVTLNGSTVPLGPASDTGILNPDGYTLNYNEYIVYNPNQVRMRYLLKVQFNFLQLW
Protocol: 2) After the coating was completed, the coating buffer was discarded. […] 6) 2000× compound was prepared. […] 10) The Stre-HRP solution was discarded.

Poly [ADP-ribose] polymerase 1, sequence (P09874 whole entry): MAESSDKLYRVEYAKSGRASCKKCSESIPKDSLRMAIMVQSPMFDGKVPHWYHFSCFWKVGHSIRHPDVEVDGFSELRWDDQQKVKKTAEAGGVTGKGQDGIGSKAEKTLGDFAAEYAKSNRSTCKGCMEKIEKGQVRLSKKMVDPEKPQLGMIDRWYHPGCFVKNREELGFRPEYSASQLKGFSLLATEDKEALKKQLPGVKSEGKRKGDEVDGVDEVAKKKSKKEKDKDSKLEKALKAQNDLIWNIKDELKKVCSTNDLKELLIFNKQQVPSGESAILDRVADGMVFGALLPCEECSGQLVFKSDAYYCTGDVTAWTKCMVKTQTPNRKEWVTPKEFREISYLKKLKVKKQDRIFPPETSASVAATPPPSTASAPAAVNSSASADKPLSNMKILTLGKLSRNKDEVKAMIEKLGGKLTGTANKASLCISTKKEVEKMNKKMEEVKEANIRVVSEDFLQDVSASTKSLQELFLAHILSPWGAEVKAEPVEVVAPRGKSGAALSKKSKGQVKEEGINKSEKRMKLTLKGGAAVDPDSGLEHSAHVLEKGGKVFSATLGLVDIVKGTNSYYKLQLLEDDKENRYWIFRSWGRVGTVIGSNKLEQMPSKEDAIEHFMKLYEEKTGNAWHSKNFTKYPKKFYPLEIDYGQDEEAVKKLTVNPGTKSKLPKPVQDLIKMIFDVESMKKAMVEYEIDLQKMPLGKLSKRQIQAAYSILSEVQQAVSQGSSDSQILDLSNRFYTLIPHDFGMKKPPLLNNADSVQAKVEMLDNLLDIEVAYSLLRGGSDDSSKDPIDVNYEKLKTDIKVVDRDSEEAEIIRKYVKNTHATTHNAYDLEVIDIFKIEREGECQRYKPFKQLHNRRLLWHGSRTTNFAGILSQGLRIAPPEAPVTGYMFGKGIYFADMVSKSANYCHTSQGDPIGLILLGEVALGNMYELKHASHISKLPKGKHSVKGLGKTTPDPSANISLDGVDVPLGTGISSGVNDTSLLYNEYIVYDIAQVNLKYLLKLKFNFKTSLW

Structure (SMILES)	IC50 [1] [nM]	IC50 [2] [nM]
CCc1cc2ncc(CN3CCN(c4ccc(C(=O)NC)nc4)[C@@H]4CC[C@H]43)cc2[nH]c1=O [US20250221987, Example 2-3]	1.5	72
CCc1cc2ncc(CN3CCN(c4ccc(C(=O)NC)nc4)[C@H]4CC[C@@H]43)cc2[nH]c1=O [US20250221987, Example 2-4]	1	40
CNC(=O)c1ccc(N2CCN(Cc3cnc4cc(OC)c(=O)[nH]c4c3)[C@H]3CC[C@H]32)cn1 [US20250221987, Example 33-1]	6.6	> 300

Results, then the molecule that gave them:

IC50 [1] [nM]	IC50 [2] [nM]	Structure (SMILES)
0.9	–	CCc1cc2ncc(CN3CCN(c4ccc(C(=O)NC)nc4)[C@H]4C[C@H]43)cc2[nH]c1=O [US20250221987, Example 1-1]
0.7	–	CCc1cc2ncc(CN3CCN(c4ccc(C(=O)NC)nc4)[C@@H]4C[C@@H]43)cc2[nH]c1=O [US20250221987, Example 1-2]
1.1	–	CCc1cc2ncc(CN3CCN(c4ccc(C(=O)NC)nc4)C4CC43)cc2[nH]c1=O (stereo unspecified) [US20250221987, Example 1]
0.9	14	CCc1cc2ncc(CN3CCN(c4ccc(C(=O)NC)nc4)C4CCC43)cc2[nH]c1=O (stereo unspecified) [US20250221987, Example 2]
